The numbers were not newly measured in patent publication US11602517B2, “Pharmaceutical composition, comprising polmacoxib and pregabalin, for treatment of pain” (CRYSTALGENOMICS, INC., priority 2018, dated 2023), which cites them from elsewhere.

Structures are written as SMILES.

For series [1] the following is noted: white or light yellow crystalline powder.

Regarding `CC(C)C[C@H](CN)CC(=O)O` [Pregabalin, (S)-(+)-3-(aminomethyl)-5-methyl-hexanoic acid], the average absorption time (absorbed from the upper part of the small intestine) was 6 h. Further, for the setting “absorption in the body”, the “time to reach maximum blood concentration” value was at most 1.3 h. For the same compound, the bioavailability entry (in vivo) is on record as “about 90%”. For the same compound, the solubility in water entry in series [1] is reported as “soluble in water”.
